IC50 data for twelve compounds are collected here from patent US20260217767A1, “NOVEL A4B7 THIOETHER PEPTIDE DIMER ANTAGONISTS” (Protagonist Therapeutics, Inc., priority 2014, published 2026).

Like-named read-outs stand apart in the source and are kept apart here. *1 amine or outer side, *2 acyl side, *3 side chain or, on linkers, in order; H or OH if unused. Where a SMILES comes first, the peptide text is derived from it. Bridges are numbered along the chain shown (N, C = ends). [ ]: non-standard residue; d: D form. Phe(4-tBu) = CC(C)(C)c1ccc(C[C@H](N)C(=O)O)cc1; NMeR = CN[C@@H](CCCNC(=N)N)C(=O)O; β3hE = N[C@@H](CCC(=O)O)CC(=O)O; X1 = O=C(c1ccccc1C[*:2])[*:1]; Pen = CC(C)(S)[C@H](N)C(=O)O

The target of this test is T1, RPMI 8866 cells (Homo sapiens, UniProt P13612+P26010).
T1 sequence (P13612 34-1032): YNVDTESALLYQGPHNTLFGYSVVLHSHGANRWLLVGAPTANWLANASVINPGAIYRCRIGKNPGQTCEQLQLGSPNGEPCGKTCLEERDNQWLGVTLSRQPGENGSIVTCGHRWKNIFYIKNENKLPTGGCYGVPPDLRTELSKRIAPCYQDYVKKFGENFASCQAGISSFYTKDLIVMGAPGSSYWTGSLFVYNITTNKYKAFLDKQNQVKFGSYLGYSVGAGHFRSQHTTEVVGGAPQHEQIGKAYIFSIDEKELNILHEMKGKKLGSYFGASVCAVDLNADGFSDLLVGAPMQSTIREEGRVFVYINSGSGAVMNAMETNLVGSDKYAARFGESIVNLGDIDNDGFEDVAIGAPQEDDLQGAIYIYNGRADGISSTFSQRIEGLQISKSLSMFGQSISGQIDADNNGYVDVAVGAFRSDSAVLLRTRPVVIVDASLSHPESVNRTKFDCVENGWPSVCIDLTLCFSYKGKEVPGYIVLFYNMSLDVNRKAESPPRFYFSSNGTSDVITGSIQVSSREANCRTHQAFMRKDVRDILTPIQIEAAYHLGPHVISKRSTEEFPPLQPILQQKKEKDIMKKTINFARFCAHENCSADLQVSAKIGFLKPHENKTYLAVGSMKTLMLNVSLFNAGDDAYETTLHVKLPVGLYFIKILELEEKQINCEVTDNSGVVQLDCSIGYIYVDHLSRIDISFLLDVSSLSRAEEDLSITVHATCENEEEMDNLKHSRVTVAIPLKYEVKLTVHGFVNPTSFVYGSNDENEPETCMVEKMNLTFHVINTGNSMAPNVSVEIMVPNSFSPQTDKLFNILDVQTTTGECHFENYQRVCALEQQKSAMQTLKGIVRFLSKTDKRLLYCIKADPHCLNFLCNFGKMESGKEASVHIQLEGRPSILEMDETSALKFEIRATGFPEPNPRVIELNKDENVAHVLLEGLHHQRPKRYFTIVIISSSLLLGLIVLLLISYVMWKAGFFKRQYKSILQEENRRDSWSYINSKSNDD
T1 sequence (P26010 20-798): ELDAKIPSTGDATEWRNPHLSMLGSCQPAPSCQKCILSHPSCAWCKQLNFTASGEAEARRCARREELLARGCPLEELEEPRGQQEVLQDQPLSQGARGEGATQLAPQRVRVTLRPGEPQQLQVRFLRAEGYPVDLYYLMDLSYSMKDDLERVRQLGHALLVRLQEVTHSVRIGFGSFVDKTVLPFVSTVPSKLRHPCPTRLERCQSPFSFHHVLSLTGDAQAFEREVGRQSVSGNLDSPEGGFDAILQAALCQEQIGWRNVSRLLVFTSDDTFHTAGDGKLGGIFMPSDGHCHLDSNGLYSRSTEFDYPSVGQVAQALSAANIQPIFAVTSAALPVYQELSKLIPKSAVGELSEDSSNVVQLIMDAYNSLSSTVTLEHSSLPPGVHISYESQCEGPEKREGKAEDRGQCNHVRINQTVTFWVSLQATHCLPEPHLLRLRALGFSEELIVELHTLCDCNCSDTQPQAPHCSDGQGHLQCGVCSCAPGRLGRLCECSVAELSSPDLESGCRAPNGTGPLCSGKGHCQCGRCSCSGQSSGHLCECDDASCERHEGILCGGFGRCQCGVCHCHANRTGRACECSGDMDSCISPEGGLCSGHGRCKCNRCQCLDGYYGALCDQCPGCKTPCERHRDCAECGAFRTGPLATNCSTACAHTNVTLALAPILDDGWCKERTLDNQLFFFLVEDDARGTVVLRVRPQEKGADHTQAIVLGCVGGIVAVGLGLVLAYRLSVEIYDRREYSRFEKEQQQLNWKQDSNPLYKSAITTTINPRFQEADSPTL
In words: α4β7-MAdCAM Cell Adhesion Assay. The conditions noted are these: read-out: Cell-Adhesion A4B7. In kind it is cell-based. The procedure:
α4β7-MAdCAM Cell Adhesion Assay
RPMI 8866 cells (Sigma #95041316) were cultured in RPMI 1640 HEPES medium (Invitrogen #22400-089) supplemented with 10% serum (Fetal Bovine Serum, Invitrogen #16140-071), 1 mM sodium pyruvate (Invitrogen #11360-070), 2 mM L-glutamine (Invitrogen #25030-081) and Penicillin-Streptomycin (Invitrogen #15140-122) at 100 units of penicillin and 100 μg of streptomycin per ml. The cells were washed two times in DMEM medium (ATCC #30-2002) supplemented with 0.1% BSA, 10 mM HEPES pH 7 and 1 mM MnCl2. The cells were re-suspended in supplemented DMEM medium at a density of 4×10^6 cells/ml.
A Nunc MaxiSorp plate was coated with rh MAdCAM-1/Fc Chimera (R&D #6065-MC) at 200 ng per well in 50 ul per well in 1×PBS and incubated at 4° C. overnight. The solution was then removed by shaking, blocked with 250 ul per well PBS containing 1% BSA, and incubated at 37° C. for 1 hr. The solution was removed by shaking. Peptides were diluted by serial dilution in a final volume of 50 ul per well (2× concentration). To each well, 50 ul of cells (200,000 cells) were added and the plate was incubated at 37° C., 5% CO2 for 30-45 min to allow cell adhesion. The wells were washed manually three times (100 ul per wash) with supplemented DMEM. After the final wash, 100 μl/well of supplemented DMEM and 10 ul/well of MTT reagent (ATTC cat #30-1010K) were added. The plate was incubated at 37° C., 5% CO2 for 2-3 hrs until a purple precipitate is visible. 100 ul of Detergent Reagent (ATTC cat #30-1010K) was added to each well. The plate was covered from the light, wrapped in Parafilm to prevent evaporation, and left overnight at room temperature in the dark. The plate was shaken for 5 min and the absorbance at 570 nm is measured. To calculate the dose response, the absorbance value of control wells not containing cells was subtracted from each test well.

The mark [1] stands for this setting: thioether peptide dimers, Table 7.
Setting [2] is: thioether monomer peptides, Table 6.

On to “180 (RSDTLCXEK; not fully specified; CROSSLINK - N-term 2-Benzyl with a thioether bond between the N-term and the residue at position 6; MOD_RES 1 N-Methyl Arginine; SITE 7 aminoindan-2-carboxylic acid; SITE 8 D-Glu; SITE 9 D-Lys; SITE 9 C-term NH2) [compound 180]”, for which the IC50 under setting [1] lay in the range of 100 to 1000 nM.

On to “181 (RSDTLXWEK; not fully specified; CROSSLINK - N-term 2-Benzyl with a thioether bond between the N-term and the residue at position 6; MOD_RES 1 N-Methyl Arginine; SITE 6 D-Penicillamine; SITE 9 D-Lys; SITE 9 C-term NH2) [compound 181]”, for which the IC50 under setting [1] was more than 1000 nM.

With “221 (RSDTLCXK; not fully specified; CROSSLINK - N-term 2-Benzyl with a thioether bond between the N-term and the residue at position 6; MOD_RES 1 N-Methyl Arginine; SITE 7 (3S-)-1,2,3,4-tetrahydroisoquinoline-3-carboxylic acid; SITE 8 D-Lys; SITE 8 C-term OH) [compound 221]”, the IC50 under setting [1] was in the range of 25 to 100 nM.

As to `CC(C)C[C@@H]1NC(=O)[C@H]([C@@H](C)O)NC(=O)[C@H](CC(=O)O)NC(=O)[C@H](CO)NC(=O)[C@H](CCCNC(=N)N)N(C)C(=O)C(C)SC(C)(C)[C@@H](C(=O)N[C@@H](Cc2c[nH]c3ccccc23)C(=O)N[C@H](CCCCN)C(N)=O)NC1=O` (single isomer, unassigned) [compound 148], the IC50 under setting [1] is more than 1000 nM.

As for `CC(C)C[C@@H]1NC(=O)[C@H]([C@@H](C)O)NC(=O)[C@H](CC(=O)O)NC(=O)[C@H](CO)NC(=O)[C@H](CCCNC(=N)N)N(C)C(=O)c2cccc(c2)CSC(C)(C)[C@@H](C(=O)N[C@@H](Cc2c[nH]c3ccccc23)C(=O)N[C@H](CCC(=O)O)C(=O)N[C@H](CCCCN)C(N)=O)NC1=O` [compound 111] (HELM PEPTIDE1{[meR].S.D.T.L.[Pen].W.[dE].[dK].[am]}|CHEM1{[O=C(c1cccc(C[*:2])c1)[*:1]]}$PEPTIDE1,CHEM1,1:R1-1:R1|PEPTIDE1,CHEM1,6:R3-1:R2$$$V2.0), the IC50 under setting [2] was more than 1000 nM.

Consider `CC(C)C[C@@H]1NC(=O)[C@H]([C@@H](C)O)NC(=O)[C@H](CC(=O)O)NC(=O)[C@H](CO)NC(=O)[C@H](CCCNC(=N)N)N(C)C(=O)c2ccc(cc2)CSC(C)(C)[C@@H](C(=O)N[C@@H](Cc2c[nH]c3ccccc23)C(=O)N[C@H](CCC(=O)O)C(=O)N[C@H](CCCCN)C(N)=O)NC1=O` [compound 112] (HELM PEPTIDE1{[meR].S.D.T.L.[Pen].W.[dE].[dK].[am]}|CHEM1{[O=C(c1ccc(C[*:2])cc1)[*:1]]}$PEPTIDE1,CHEM1,1:R1-1:R1|PEPTIDE1,CHEM1,6:R3-1:R2$$$V2.0), for which the IC50 under setting [2] is more than 1000 nM.

Take `CC(C)C[C@@H]1NC(=O)[C@H]([C@@H](C)O)NC(=O)[C@H](CC(=O)O)NC(=O)[C@H](CO)NC(=O)[C@H](CCCNC(=N)N)N(C)C(=O)c2ccccc2CSC[C@@H](C(=O)N2Cc3ccccc3C[C@H]2C(=O)N[C@H](CCCCN)C(=O)O)NC1=O` [compound 118] (HELM PEPTIDE1{[meR].S.D.T.L.C.[Tic].[dK]}|CHEM1{[O=C(c1ccccc1C[*:2])[*:1]]}$PEPTIDE1,CHEM1,1:R1-1:R1|PEPTIDE1,CHEM1,6:R3-1:R2$$$V2.0): the IC50 under setting [2] is 100 to 1000 nM.

`CC(C)C[C@@H]1NC(=O)[C@H]([C@@H](C)O)NC(=O)[C@H](CC(=O)O)NC(=O)[C@H](C)NC(=O)[C@H](CCCNC(=N)N)N(C)C(=O)c2ccccc2CSC(C)(C)[C@@H](C(=O)N[C@@H](Cc2ccc(C(C)(C)C)cc2)C(=O)N[C@@H](CCC(=O)O)CC(N)=O)NC1=O` [compound 139] ([NMeR]ADTL[Pen][Phe(4-tBu)][β3hE]-NH2; linker N-6 via X1): the IC50 under setting [2] lay within 25 to 100 nM.

With `CC(C)C[C@@H]1NC(=O)[C@H]([C@@H](C)O)NC(=O)[C@H](CC(=O)O)NC(=O)[C@H](CO)NC(=O)[C@H](CCCNC(=N)N)N(C)C(=O)c2ccccc2CSC[C@@H](C(=O)N[C@@H](Cc2c[nH]c3ccccc23)C(=O)N[C@@H](CCC(=O)O)C(=O)N[C@H](CCCCN)C(N)=O)NC1=O` [compound 145] (HELM PEPTIDE1{[meR].S.D.T.L.C.W.E.[dK].[am]}|CHEM1{[O=C(c1ccccc1C[*:2])[*:1]]}$PEPTIDE1,CHEM1,1:R1-1:R1|PEPTIDE1,CHEM1,6:R3-1:R2$$$V2.0), the IC50 under setting [1] lay in the range of 25 to 100 nM.

`CC(C)C[C@@H]1NC(=O)[C@H]([C@@H](C)O)NC(=O)[C@H](CC(=O)O)NC(=O)[C@H](CO)NC(=O)[C@H](CCCNC(=N)N)N(C)C(=O)CSC(C)(C)[C@@H](C(=O)N[C@@H](Cc2c[nH]c3ccccc23)C(=O)N[C@H](CCCCN)C(N)=O)NC1=O` [compound 147]: the IC50 under setting [1] is more than 1000 nM.

As for `CC(C)C[C@@H]1NC(=O)[C@H]([C@@H](C)O)NC(=O)[C@H](CC(=O)O)NC(=O)[C@H](CO)NC(=O)[C@H](CCCNC(=N)N)N(C)C(=O)c2ccccc2CSC[C@@H](C(=O)N[C@H](Cc2ccccc2)C(=O)N[C@@H](CCC(=O)O)C(=O)N[C@H](CCCCN)C(N)=O)NC1=O` [compound 186] (HELM PEPTIDE1{[meR].S.D.T.L.C.[dF].E.[dK].[am]}|CHEM1{[O=C(c1ccccc1C[*:2])[*:1]]}$PEPTIDE1,CHEM1,1:R1-1:R1|PEPTIDE1,CHEM1,6:R3-1:R2$$$V2.0), under setting [1], the IC50 was in the range of 25 to 100 nM.

On to `CC(C)C[C@@H]1NC(=O)[C@H]([C@@H](C)O)NC(=O)[C@H](CC(=O)O)NC(=O)[C@H](CO)NC(=O)[C@H](CCCNC(=N)N)N(C)C(=O)c2ccccc2CSC[C@@H](C(=O)N[C@H](Cc2ccccc2)C(=O)N[C@H](CCC(=O)O)C(=O)N[C@H](CCCCN)C(N)=O)NC1=O` [compound 187] (HELM PEPTIDE1{[meR].S.D.T.L.C.[dF].[dE].[dK].[am]}|CHEM1{[O=C(c1ccccc1C[*:2])[*:1]]}$PEPTIDE1,CHEM1,1:R1-1:R1|PEPTIDE1,CHEM1,6:R3-1:R2$$$V2.0), for which the IC50 under setting [1] fell in the range of 25 to 100 nM.
